Laboratory results taken from ChEMBL document CHEMBL5291721, “A preclinical secondary pharmacology resource illuminates target-adverse drug reaction associations of marketed drugs” (Nat Commun, 2023).

Columns and labels:
[1] = molecular target: T1, Type-1 angiotensin II receptor (Homo sapiens, UniProt P30556)
T1 sequence (P30556 whole entry): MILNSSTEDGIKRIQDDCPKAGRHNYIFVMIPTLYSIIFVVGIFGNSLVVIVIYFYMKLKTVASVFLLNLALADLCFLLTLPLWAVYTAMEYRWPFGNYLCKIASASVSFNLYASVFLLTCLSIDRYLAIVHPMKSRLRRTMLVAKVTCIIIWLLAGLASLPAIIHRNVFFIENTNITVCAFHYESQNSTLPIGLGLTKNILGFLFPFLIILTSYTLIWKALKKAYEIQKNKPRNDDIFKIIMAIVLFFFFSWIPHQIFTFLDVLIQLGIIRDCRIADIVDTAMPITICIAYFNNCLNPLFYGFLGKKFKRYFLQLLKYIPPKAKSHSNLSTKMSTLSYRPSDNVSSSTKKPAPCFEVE

B2 bradykinin receptor = molecular target: T2, B2 bradykinin receptor (Homo sapiens, UniProt P30411)
T2 sequence (P30411 whole entry): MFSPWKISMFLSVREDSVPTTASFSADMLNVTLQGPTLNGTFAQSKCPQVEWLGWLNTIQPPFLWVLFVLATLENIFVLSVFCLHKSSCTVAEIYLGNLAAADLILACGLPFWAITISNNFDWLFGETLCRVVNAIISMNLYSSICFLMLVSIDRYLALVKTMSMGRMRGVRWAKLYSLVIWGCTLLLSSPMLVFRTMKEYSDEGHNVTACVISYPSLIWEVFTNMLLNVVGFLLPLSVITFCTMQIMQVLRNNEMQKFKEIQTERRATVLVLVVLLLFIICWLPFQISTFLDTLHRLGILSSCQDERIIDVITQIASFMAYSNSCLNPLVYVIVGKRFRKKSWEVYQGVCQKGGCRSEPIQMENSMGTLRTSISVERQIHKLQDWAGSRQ

[2] = molecular target: T3, Muscarinic acetylcholine receptor M2 (Homo sapiens, UniProt P08172); type: functional, cell-based
T3 sequence (P08172 whole entry): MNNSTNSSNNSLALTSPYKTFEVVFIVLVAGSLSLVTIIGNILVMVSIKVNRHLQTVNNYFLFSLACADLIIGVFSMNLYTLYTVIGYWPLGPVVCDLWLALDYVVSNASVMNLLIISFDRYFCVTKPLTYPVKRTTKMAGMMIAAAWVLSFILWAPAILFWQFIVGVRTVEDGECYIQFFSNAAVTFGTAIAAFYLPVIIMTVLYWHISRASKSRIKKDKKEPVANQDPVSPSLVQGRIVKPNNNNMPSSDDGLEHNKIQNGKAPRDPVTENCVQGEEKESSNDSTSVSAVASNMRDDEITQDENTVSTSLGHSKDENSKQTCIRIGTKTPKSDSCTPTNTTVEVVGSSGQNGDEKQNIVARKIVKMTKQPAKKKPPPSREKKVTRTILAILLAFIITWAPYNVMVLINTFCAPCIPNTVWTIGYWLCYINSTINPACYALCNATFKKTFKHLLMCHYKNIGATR

Endothelin-1 receptor = molecular target: T4, Endothelin-1 receptor (Homo sapiens, UniProt P25101)
T4 sequence (P25101 whole entry): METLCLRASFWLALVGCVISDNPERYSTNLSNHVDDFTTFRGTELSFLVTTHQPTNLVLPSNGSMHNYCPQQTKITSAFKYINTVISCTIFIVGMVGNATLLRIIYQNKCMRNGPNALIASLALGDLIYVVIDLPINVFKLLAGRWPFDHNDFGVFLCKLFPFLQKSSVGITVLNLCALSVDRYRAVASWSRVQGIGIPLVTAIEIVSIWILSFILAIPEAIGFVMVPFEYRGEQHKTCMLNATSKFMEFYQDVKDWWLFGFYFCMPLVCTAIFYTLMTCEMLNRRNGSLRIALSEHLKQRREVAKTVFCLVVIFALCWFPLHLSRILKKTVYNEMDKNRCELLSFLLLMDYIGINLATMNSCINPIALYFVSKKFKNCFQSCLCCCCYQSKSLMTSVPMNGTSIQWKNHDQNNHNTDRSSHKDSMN

[3] = molecular target: T5, 5-hydroxytryptamine receptor 1A (Homo sapiens, UniProt P08908); type: functional, cell-based
T5 sequence (P08908 whole entry): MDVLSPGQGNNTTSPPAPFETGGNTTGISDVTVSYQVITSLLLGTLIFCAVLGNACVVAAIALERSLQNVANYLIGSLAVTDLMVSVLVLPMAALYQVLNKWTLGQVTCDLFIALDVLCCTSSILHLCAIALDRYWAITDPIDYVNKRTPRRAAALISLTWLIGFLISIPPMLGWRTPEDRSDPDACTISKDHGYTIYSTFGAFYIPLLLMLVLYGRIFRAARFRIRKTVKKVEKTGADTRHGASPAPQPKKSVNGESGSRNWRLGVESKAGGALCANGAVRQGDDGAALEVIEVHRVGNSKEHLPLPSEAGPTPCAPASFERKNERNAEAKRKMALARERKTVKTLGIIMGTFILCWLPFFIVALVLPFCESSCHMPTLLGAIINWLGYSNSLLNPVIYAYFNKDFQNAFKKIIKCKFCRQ

[4] = molecular target: T6, Prostaglandin G/H synthase 1 (Rattus norvegicus, UniProt Q63921); type: functional
T6 sequence (Q63921 whole entry): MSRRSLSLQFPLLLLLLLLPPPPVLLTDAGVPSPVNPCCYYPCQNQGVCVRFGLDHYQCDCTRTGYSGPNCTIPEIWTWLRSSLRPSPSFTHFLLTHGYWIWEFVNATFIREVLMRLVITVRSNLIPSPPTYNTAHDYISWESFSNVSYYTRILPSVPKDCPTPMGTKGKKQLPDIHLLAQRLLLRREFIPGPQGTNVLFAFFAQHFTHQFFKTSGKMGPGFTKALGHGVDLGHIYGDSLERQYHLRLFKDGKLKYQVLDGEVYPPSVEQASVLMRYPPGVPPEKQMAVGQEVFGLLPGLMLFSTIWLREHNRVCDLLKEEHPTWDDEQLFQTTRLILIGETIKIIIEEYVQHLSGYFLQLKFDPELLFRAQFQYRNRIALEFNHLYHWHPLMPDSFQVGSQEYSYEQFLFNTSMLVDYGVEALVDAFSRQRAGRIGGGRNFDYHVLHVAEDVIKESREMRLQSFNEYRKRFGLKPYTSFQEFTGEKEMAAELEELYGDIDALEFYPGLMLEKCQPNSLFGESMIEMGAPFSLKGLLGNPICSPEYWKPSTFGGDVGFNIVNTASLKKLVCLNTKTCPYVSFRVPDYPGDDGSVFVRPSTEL

D(3) dopamine receptor = D(3) dopamine receptor (Homo sapiens, UniProt P35462)
Further: assay procedure not described here.

D(3) dopamine receptor, sequence (P35462 whole entry): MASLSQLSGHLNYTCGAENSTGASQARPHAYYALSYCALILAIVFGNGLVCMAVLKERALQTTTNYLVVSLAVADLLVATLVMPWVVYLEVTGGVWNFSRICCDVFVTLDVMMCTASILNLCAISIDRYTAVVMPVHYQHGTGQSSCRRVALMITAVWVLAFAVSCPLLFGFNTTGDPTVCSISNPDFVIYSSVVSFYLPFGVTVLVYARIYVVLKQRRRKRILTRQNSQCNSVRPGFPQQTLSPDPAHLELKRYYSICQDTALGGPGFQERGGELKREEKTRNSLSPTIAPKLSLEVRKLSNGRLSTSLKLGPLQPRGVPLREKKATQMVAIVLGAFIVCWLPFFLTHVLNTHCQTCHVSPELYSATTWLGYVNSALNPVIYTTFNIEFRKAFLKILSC

Structure (SMILES): CC[C@@H](C(N)=O)N1CCCC1=O
- AC50 [1]: > 30 µM
- AC50 (B2 bradykinin receptor): > 30 µM
- AC50 [2]: > 30 µM
- AC50 (Endothelin-1 receptor): > 30 µM
- AC50 [3]: > 30 µM
- AC50 [4]: > 30 µM
- AC50 (D(3) dopamine receptor): > 30 µM

Structure (SMILES): CCC(CC)(CC(=O)Nc1cccc(/C=C/c2nc(C3CCC3)cs2)c1)C(=O)O
- AC50 [1]: > 30 µM
- AC50 (B2 bradykinin receptor): > 30 µM
- AC50 (Endothelin-1 receptor): > 30 µM
- AC50 [4]: > 30 µM

Structure (SMILES): CC(=O)c1ccc2c(c1)N(CCCN(C)C)c1ccccc1S2 [ACEPROMAZINE]
- AC50 (D(3) dopamine receptor): 0.013 µM

Structure (SMILES): CCCC1O[C@@H]2C[C@H]3[C@@H]4CCC5=CC(=O)C=C[C@]5(C)[C@H]4[C@@H](O)C[C@]3(C)[C@]2(C(=O)CO)O1 (stereo partly specified) [BUDESONIDE]
- AC50 [1]: > 10 µM
- AC50 (B2 bradykinin receptor): > 10 µM
- AC50 [2]: > 10 µM
- AC50 [3]: > 10 µM
- AC50 [4]: > 10 µM
- AC50 (D(3) dopamine receptor): > 30 µM

Structure (SMILES): C=CCN1C[C@H](C(=O)N(CCCN(C)C)C(=O)NCC)C[C@@H]2c3cccc4[nH]cc(c34)C[C@H]21 [CABERGOLINE]
- AC50 [1]: > 10 µM
- AC50 (B2 bradykinin receptor): > 10 µM
- AC50 [2]: > 30 µM
- AC50 [3]: 0.162 µM
- AC50 [4]: > 10 µM
- AC50 (D(3) dopamine receptor): 0.0076 µM

Structure (SMILES): NC1CCN(c2c(F)cc3c(=O)c(C(=O)O)cn(C4CC4)c3c2Cl)C1 (stereo unspecified) [CLINAFLOXACIN]
- AC50 (Endothelin-1 receptor): > 300 µM

Structure (SMILES): CN1CCN(C2=Nc3ccccc3Sc3ccc(Cl)cc32)CC1 [CLOTHIAPINE]
- AC50 [2]: > 30 µM
- AC50 [3]: > 30 µM
- AC50 (D(3) dopamine receptor): 0.35 µM

Structure (SMILES): CN(C)CCC=C1c2ccccc2C=Cc2ccccc21 [CYCLOBENZAPRINE]
- AC50 [1]: > 30 µM
- AC50 (B2 bradykinin receptor): > 30 µM
- AC50 (Endothelin-1 receptor): > 30 µM
- AC50 [3]: > 10 µM
- AC50 [4]: > 30 µM
- AC50 (D(3) dopamine receptor): 1.1 µM

Structure (SMILES): CCOc1ccc(Cc2cc([C@@H]3O[C@H](CO)[C@@H](O)[C@H](O)[C@H]3O)ccc2Cl)cc1 [DAPAGLIFLOZIN]
- AC50 [1]: > 30 µM
- AC50 (B2 bradykinin receptor): > 30 µM
- AC50 [4]: > 30 µM
- AC50 (D(3) dopamine receptor): > 30 µM

Structure (SMILES): CN(C)CC/C=C1\c2ccccc2CSc2ccccc21 [DOTHIEPIN]
- AC50 [1]: > 30 µM
- AC50 (B2 bradykinin receptor): > 30 µM
- AC50 [2]: > 30 µM
- AC50 (Endothelin-1 receptor): > 30 µM
- AC50 [3]: > 30 µM
- AC50 [4]: > 30 µM
- AC50 (D(3) dopamine receptor): 3 µM

Structure (SMILES): CC[C@H]1CN2CCc3cc(OC)c(OC)cc3[C@@H]2C[C@@H]1C[C@H]1NCCc2cc(OC)c(OC)cc21 [EMETINE]
- AC50 [1]: > 30 µM
- AC50 (B2 bradykinin receptor): > 30 µM
- AC50 [2]: > 30 µM
- AC50 (Endothelin-1 receptor): > 30 µM
- AC50 [3]: > 30 µM
- AC50 [4]: > 30 µM

Structure (SMILES): COc1ccc(C(=O)Nc2ccccc2CCC2CCCCN2C)cc1 (stereo unspecified) [ENCAINIDE]
- AC50 [1]: > 30 µM
- AC50 (B2 bradykinin receptor): > 30 µM
- AC50 [2]: > 10 µM
- AC50 (Endothelin-1 receptor): > 30 µM
- AC50 [3]: > 10 µM
- AC50 [4]: > 30 µM
- AC50 (D(3) dopamine receptor): > 10 µM

Structure (SMILES): O=[N+]([O-])O[C@@H]1CO[C@H]2[C@@H]1OC[C@@H]2O [ISOSORBIDE MONONITRATE]
- AC50 [1]: > 30 µM
- AC50 (B2 bradykinin receptor): > 30 µM
- AC50 [2]: > 10 µM
- AC50 (Endothelin-1 receptor): > 30 µM
- AC50 [3]: > 10 µM
- AC50 [4]: > 30 µM
- AC50 (D(3) dopamine receptor): > 10 µM

Structure (SMILES): Cc1cc(C)c(NC(=O)CN(CC(=O)O)CC(=O)O)c(C)c1Br [MEBROFENIN]
- AC50 [2]: > 30 µM
- AC50 (D(3) dopamine receptor): 22 µM

Structure (SMILES): COc1ccccc1N1CCN(CC(O)COc2cccc3ccccc23)CC1 (stereo unspecified) [NAFTOPIDIL]
- AC50 [2]: > 30 µM
- AC50 [3]: > 30 µM
- AC50 [4]: > 30 µM
- AC50 (D(3) dopamine receptor): 0.42 µM

Structure (SMILES): COc1cc2nc(N3CCN(C(=O)c4ccco4)CC3)nc(N)c2cc1OC [PRAZOSIN]
- AC50 [1]: 7.8 µM
- AC50 (B2 bradykinin receptor): > 30 µM
- AC50 [2]: > 10 µM
- AC50 (Endothelin-1 receptor): > 30 µM
- AC50 [4]: > 30 µM
- AC50 (D(3) dopamine receptor): > 30 µM

Structure (SMILES): O=[N+]([O-])c1cn2c(n1)OC[C@@H](OCc1ccc(OC(F)(F)F)cc1)C2 [PRETOMANID]
- AC50 [1]: > 30 µM
- AC50 (B2 bradykinin receptor): > 30 µM
- AC50 (Endothelin-1 receptor): > 30 µM
- AC50 (D(3) dopamine receptor): > 10 µM

Structure (SMILES): Cc1oc(=O)oc1CN1CCN(c2cc3c(cc2F)c(=O)c(C(=O)O)c2n3C(C)S2)CC1 (stereo unspecified) [PRULIFLOXACIN]
- AC50 [2]: > 30 µM
- AC50 (D(3) dopamine receptor): > 30 µM

Structure (SMILES): CCCCCNC(=N)N/N=C/c1c[nH]c2ccc(OC)cc12 [TEGASEROD]
- AC50 [1]: 1.8 µM
- AC50 (B2 bradykinin receptor): > 30 µM
- AC50 [2]: > 30 µM
- AC50 (Endothelin-1 receptor): > 30 µM
- AC50 [3]: > 30 µM
- AC50 [4]: 25 µM
- AC50 (D(3) dopamine receptor): 3.5 µM

Structure (SMILES): COC1=C(OC)C(=O)C(C/C=C(\C)CC/C=C(\C)CC/C=C(\C)CC/C=C(\C)CC/C=C(\C)CC/C=C(\C)CC/C=C(\C)CC/C=C(\C)CC/C=C(\C)CCC=C(C)C)=C(C)C1=O [UBIDECARENONE]
- AC50 [2]: > 30 µM
- AC50 [3]: > 30 µM
- AC50 (D(3) dopamine receptor): > 30 µM

Structure (SMILES): CCOc1ccccc1OCC1CNCCO1 (stereo unspecified) [VILOXAZINE]
- AC50 [1]: > 30 µM
- AC50 (B2 bradykinin receptor): > 30 µM
- AC50 [2]: > 10 µM
- AC50 (Endothelin-1 receptor): > 30 µM
- AC50 [3]: > 10 µM
- AC50 [4]: > 30 µM
- AC50 (D(3) dopamine receptor): > 10 µM

Structure (SMILES): CN(C)CCc1c[nH]c2ccc(C[C@H]3COC(=O)N3)cc12 [ZOLMITRIPTAN]
- AC50 [1]: > 30 µM
- AC50 (B2 bradykinin receptor): > 30 µM
- AC50 [2]: > 30 µM
- AC50 (Endothelin-1 receptor): > 30 µM
- AC50 [4]: > 30 µM
- AC50 (D(3) dopamine receptor): > 30 µM
